Experiments:
A549 = test: Cytotoxicity against human A549 cells after 48 hrs by MTT assay; assay type: cell-based; settings: A549, 48 h
SH-SY5Y [1] = test: Neuroprotective activity against H2O2-induced neuronal cell death in human SH-SY5Y cells assessed as cell viability at 100 uM pretreated for 12 hrs followed by H2O2 addition measured after 3 hrs by MTT assay relative to control; assay type: functional; settings: read-out: Activity
SH-SY5Y [2] = test: Neuroprotective activity against H2O2-induced neuronal cell death in human SH-SY5Y cells assessed as cell viability at 25 uM pretreated for 12 hrs followed by H2O2 addition measured after 3 hrs by MTT assay relative to control; assay type: functional; settings: read-out: Activity
MCF7 = test: Cytotoxicity against human MCF7 cells after 48 hrs by MTT assay; assay type: cell-based; settings: MCF7, 48 h
SH-SY5Y [3] = test: Neuroprotective activity against H2O2-induced neuronal cell death in human SH-SY5Y cells assessed as cell viability at 50 uM pretreated for 12 hrs followed by H2O2 addition measured after 3 hrs by MTT assay relative to control; assay type: functional; settings: read-out: Activity
[4] = Cytotoxicity against human Hep3B cells after 48 hrs by MTT assay; assay type: cell-based, Hep 3B2
HepG2 = test: Cytotoxicity against human HepG2 cells after 48 hrs by MTT assay; assay type: cell-based; settings: HepG2, 48 h
Bcap37 = test: Cytotoxicity against human Bcap37 cells after 48 hrs by MTT assay; assay type: cell-based; settings: Bcap37, 48 h

Row | SMILES | IC50 (A549) | viability at 100 µM (SH-SY5Y [1]) | viability at 25 µM (SH-SY5Y [2]) | IC50 (MCF7) | viability at 50 µM (SH-SY5Y [3]) | IC50 [4] | IC50 (HepG2) | IC50 (Bcap37)
1 | CC1(C)CC[C@]23CO[C@@]4(C=C[C@@H]5[C@@]6(C)CC[C@H](O)[C@@](C)(CO)[C@@H]6CC[C@@]5(C)[C@]4(C)C[C@@H]2O)[C@@H]3C1 | > 80 µM | 43.5% | 66.7% | > 80 µM | 74.2% | > 80 µM | 75.7 µM | > 80 µM
2 | CC1(C)CC[C@]23CO[C@@]4(C=C[C@@H]5[C@@]6(C)CC[C@H](O)[C@@](C)(CO)[C@@H]6CC[C@@]5(C)[C@]4(C)C[C@H]2O)[C@@H]3C1 | > 80 µM | 62.6% | 70% | > 80 µM | 62.4% | > 80 µM | 63.4 µM | > 80 µM
3 | CC1(C)CC[C@@]2(CO)C(=C3C=C[C@@H]4[C@@]5(C)CC[C@H](O)[C@@](C)(CO)[C@@H]5CC[C@@]4(C)[C@]3(C)C[C@@H]2O)C1 | > 80 µM | 78% | 81.4% | > 80 µM | 79.9% | > 80 µM | > 80 µM | > 80 µM
4 | CO[C@@H]1C=C2[C@@H]3CC(C)(C)CC[C@]3(CO)[C@@H](O)C[C@@]2(C)[C@]2(C)CC[C@H]3C(C)(C)[C@@H](O[C@@H]4O[C@H](C)[C@H](O)[C@H](O[C@@H]5O[C@H](CO)[C@@H](O)[C@H](O)[C@H]5O)[C@H]4O)CC[C@]3(C)[C@@H]12 | > 80 µM | 6.02% | 64.9% | > 80 µM | 7.15% | > 80 µM | 43.2 µM | > 80 µM
5 | CC1(C)CC[C@@]2(CO)C(=C3C=C[C@@H]4[C@@]5(C)CC[C@H](O)[C@@](C)(CO)[C@@H]5CC[C@@]4(C)[C@]3(C)C[C@H]2O)C1 | > 80 µM | 79.3% | 83.4% | > 80 µM | 82.5% | > 80 µM | > 80 µM | > 80 µM
6 | C[C@H]1O[C@@H](O[C@H]2CC[C@@]3(C)[C@@H](CC[C@]4(C)[C@@H]3[C@H](O)C=C3[C@@H]5CC(C)(C)CC[C@]5(CO)[C@@H](O)C[C@]34C)[C@]2(C)CO)[C@H](O)[C@@H](O[C@@H]2O[C@H](CO)[C@@H](O)[C@H](O)[C@H]2O)[C@H]1O | > 80 µM | 55.6% | 57.5% | > 80 µM | 54.4% | > 80 µM | > 80 µM | > 80 µM
7 | C[C@H]1O[C@@H](O[C@H]2CC[C@@]3(C)[C@@H](CC[C@]4(C)[C@@H]3C=CC3=C5CC(C)(C)CC[C@]5(CO)[C@H](O)C[C@]34C)[C@]2(C)CO)[C@H](O)[C@@H](O[C@@H]2O[C@H](CO)[C@@H](O)[C@H](O)[C@H]2O)[C@H]1O | > 80 µM | 33.3% | 66.9% | > 80 µM | 59.5% | > 80 µM | 35.1 µM | > 80 µM
8 | CC(=O)OC[C@H]1O[C@@H](O[C@H]2[C@@H](O)[C@@H](C)O[C@@H](O[C@H]3CC[C@@]4(C)[C@@H](CC[C@]5(C)[C@@H]4C=CC4=C6CC(C)(C)CC[C@]6(CO)[C@H](O)C[C@]45C)[C@]3(C)CO)[C@@H]2O)[C@H](O)[C@@H](O)[C@@H]1O | 69.3 µM | 7.64% | 14.3% | 46.5 µM | 7.24% | > 80 µM | 21.8 µM | > 80 µM
9 | CO[C@@H]1C=C2[C@@H]3CC(C)(C)CC[C@]3(CO)[C@H](O)C[C@@]2(C)[C@]2(C)CC[C@H]3[C@](C)(CO)[C@@H](O[C@@H]4O[C@H](C)[C@H](O)[C@H](O[C@@H]5O[C@H](COC(C)=O)[C@@H](O)[C@H](O)[C@H]5O)[C@H]4O)CC[C@]3(C)[C@@H]12 | – | 7.16% | 11.7% | – | 7.12% | – | – | –
10 | C[C@H]1O[C@@H](O[C@H]2CC[C@@]3(C)[C@@H](CC[C@]4(C)[C@@H]3[C@H](O)C=C3[C@@H]5CC(C)(C)CC[C@]5(CO)[C@@H](O)C[C@]34C)[C@]2(C)CO)[C@H](O)[C@@H](O)[C@H]1O | 58.1 µM | 6.3% | 67.6% | 29.4 µM | 11.4% | 39.6 µM | 19.4 µM | 20.2 µM
11 | CC1(C)CC[C@]2(CO)C(=O)C[C@]3(C)C(=C2C1)C=C[C@@H]1[C@@]2(C)CC[C@H](O)[C@@](C)(CO)[C@@H]2CC[C@]13C | > 80 µM | 77.8% | 78.2% | > 80 µM | 80.6% | > 80 µM | > 80 µM | > 80 µM
12 | CO[C@@H]1C=C2[C@@H]3CC(C)(C)C[C@H](O)[C@]3(CO)[C@@H](O)C[C@@]2(C)[C@]2(C)CC[C@@H]3[C@](C)(CCC(=O)[C@@]3(C)CO)[C@@H]12 | > 80 µM | 67.2% | 75.6% | > 80 µM | 70.2% | > 80 µM | 65.9 µM | > 80 µM
13 | CC1(C)CC[C@@]2(CO)C(=C3C=C[C@@H]4[C@@]5(C)CCC(=O)[C@@](C)(CO)[C@@H]5CC[C@@]4(C)[C@]3(C)C[C@H]2O)C1 | > 80 µM | 75.1% | 77.2% | > 80 µM | 74.1% | > 80 µM | > 80 µM | > 80 µM
14 | CO[C@@H]1C=C2[C@@H]3CC(C)(C)CC[C@]3(CO)[C@@H](O)C[C@@]2(C)[C@]2(C)CC[C@H]3[C@](C)(CO)[C@@H](O[C@@H]4O[C@H](C)[C@H](O)[C@H](O[C@@H]5O[C@H](CO)[C@@H](O)[C@H](O)[C@H]5O)[C@H]4O)CC[C@]3(C)[C@@H]12 | > 80 µM | 6.16% | 63.1% | 64.3 µM | 8.25% | > 80 µM | 27.5 µM | > 80 µM
15 | CC(=O)O[C@H]1[C@H](O[C@H]2[C@@H](O)[C@@H](C)O[C@@H](O[C@H]3CC[C@@]4(C)[C@@H](CC[C@]5(C)[C@@H]4C=CC4=C6CC(C)(C)CC[C@]6(CO)[C@H](O)C[C@]45C)[C@]3(C)CO)[C@@H]2O)O[C@H](CO)[C@@H](O)[C@@H]1O | 56 µM | 7.36% | 9.38% | 42.2 µM | 7.28% | 23 µM | 18.9 µM | 23.5 µM
16 | CO[C@H]1C=C2[C@H]3CC(C)(C)CC[C@@]3(CO)[C@H](O)C[C@]2(C)[C@@]2(C)CC[C@@H]3C(C)(C)[C@H](O[C@@H]4O[C@H](CO[C@H]5O[C@@H](CO)[C@H](O)[C@@H](O)[C@@H]5O)[C@@H](O[C@@H]5O[C@@H](C)[C@H](O)[C@@H](O)[C@H]5O)[C@H](O)[C@H]4O)CC[C@@]3(C)[C@H]12 | > 80 µM | 20.2% | 58.4% | > 80 µM | 50% | 75.7 µM | > 80 µM | > 80 µM
17 | C[C@@H]1O[C@@H](O[C@H]2[C@H](O)[C@@H](O)[C@H](O[C@@H]3CC[C@]4(C)[C@H](CC[C@@]5(C)[C@H]4CC=C4[C@H]6CC(C)(C)CC[C@@]6(CO)[C@H](O)C[C@@]45C)C3(C)C)O[C@@H]2CO[C@H]2O[C@@H](CO)[C@H](O)[C@@H](O)[C@@H]2O)[C@H](O)[C@H](O)[C@H]1O | > 80 µM | 8.66% | 51.4% | > 80 µM | 53% | 37.8 µM | > 80 µM | > 80 µM
18 | O=c1[nH]cc(F)c(=O)[nH]1 [FLUOROURACIL] | – | – | – | 42.8 µM | – | 10.5 µM | 49.7 µM | 47.1 µM
19 | Cc1c(C)c2c(c(C)c1O)CCC(C)(C(=O)O)O2 (stereo not drawn) [TROLOX] | – | 75.2% | 67% | – | 73.7% | – | – | –
